In one data set the test system is E. coli PQ37. Nature of the data set: SOS chromotest. Type of data set: cell-based. How it is done:
For the final safety check of selenoureas, the SOS chromotest was carried out. […] The results are presented as the mean value of induction factor I (c) ± SEM based on the results of three independent experiments, each of which included three replicates (Table 5).
The SOS chromotest was carried out according to the standard procedure, with recommended additions. The E. coli PQ37 strain was provided by P. Quillardet (Paris, France). The test compounds were dissolved in dimethyl sulfoxide (DMSO) (also used as a negative control) and added to the bacterial medium in the required concentrations; the concentration of the injected solutions was 1% by volume.

The nature of data set [1]: LDH release cytotoxicity on peritoneal macrophages. Type of data set: cell-based, mice. To be noted: male, C57bl/6j, mouse; 24 h incubation; read-out: LDH CC50 ± SE. How it is done:
(§1) Peritoneal macrophages (PM) were isolated from the peritoneal exudate of 30 male C57bl/6j mice. To accumulate PM, 1 mL of 3% peptone solution was injected intraperitoneally. After 3 days, the mice were euthanized by cervical dislocation. Cells of peritoneal exudate were obtained by aseptic washing of the abdominal cavity with 5 mL of sterile Hanks’s solution (+4–6 °C) without calcium and magnesium ions. The total number and viability of cells were assessed in a Goryaev counting chamber (Russia) with a 0.4% trypan blue staining (Sigma-Aldrich, St. Louis, MO, USA). The cell concentration was adjusted to 1.0 × 10^6 cells/mL in DMEM (Gibco) supplemented with 2 mM L-glutamine (Gibco), 10% heat-inactivated fetal bovine serum (BioClot, Passau, Germany), 100 U/mL penicillin and […] streptomycin (Gibco) and plated 200 μL/well in 96-well transparent plates (SPL Life Sciences Co., Ltd., Pochon, Korea). After 2 h at 37 °C in a humidified atmosphere with 5% CO2, wells were washed to remove nonadherent cells. After 24 h of incubation, 20 μL of the supernatants were substituted with 20 μL of solutions of the test compounds, followed with E. coli O127:B8 LPS (100 ng/mL final concentration) after 30 min. Experiments were run in 3 independent replicates.
The activity of lactate dehydrogenase (LDH) in a cell culture medium served as a marker of membrane permeability and cell death. Aliquots of supernatants were taken after 24 h of inoculation with test compounds, mixed with 250 μL of […] NADH solution in 54 mM phosphate-buffered saline (pH 7.5). Then, 25 μL of a 6.48 mM pyruvate solution was added to the mixture. The optical density was followed at a wavelength of 340 nm for 20 min. The MTT test was performed 24 h after the incubation of cells with the tested compounds. […] The plates were shaken at room temperature for 10 min, and the optical density was measured in a microplate reader Infinite M200 PRO (Tecan Group Ltd., Männedorf, Switzerland) at a wavelength of 565 nm.
For orientation: Release of lactate dehydrogenase indicates damage to the cell membrane.

A short description of data set [2]: MTT cytotoxicity on peritoneal macrophages. Type of data set: cell-based, mice. The conditions noted are these: male, C57bl/6j, mouse; 24 h incubation; read-out: MTT CC50 ± SE. Here is the method: as §1
(§2) The activity of lactate dehydrogenase (LDH) in a cell culture medium served as a marker of membrane permeability and cell death. Aliquots of supernatants were taken after 24 h of inoculation with test compounds, mixed with 250 μL of […] NADH solution in 54 mM phosphate-buffered saline (pH 7.5). Then, 25 μL of a 6.48 mM pyruvate solution was added to the mixture. The optical density was followed at a wavelength of 340 nm for 20 min. The MTT test was performed 24 h after the incubation of cells with the tested compounds. Briefly, 20 μL of MTT solution was added to each well and incubated at 37 °C in a humidified atmosphere containing 5% CO2 for 4 h. The culture medium was aspirated, the cells were lysed and formazan crystals dissolved in 150 μL of DMSO. The plates were shaken at room temperature for 10 min, and the optical density was measured in a microplate reader Infinite M200 PRO (Tecan Group Ltd., Männedorf, Switzerland) at a wavelength of 565 nm.

Data set [3] concerns C57bl/6j peritoneal macrophages. Nature of the data set: MTT cytotoxicity on peritoneal macrophages. The data set is classed as cell-based, mice. To be noted: Mus musculus, Peritoneal macrophage, read-out: EC50 ± SEM, C57bl/6j. Here is the method:
as §1, §2

In another data set the test system is E. coli MG1655 pXen7. Nature of the data set: Constitutive lux-biosensor, general toxicity. The data set is classed as cell-based, Escherichia coli. The conditions noted are these: compound at 1 mM; decrease ascribed to shielding of bioluminescence. Here is the method:
Importantly, all the studied compounds are poorly soluble in water and can form a suspension at 1 mM; moreover, compound 4a at concentrations above 100 μM presents a substance of dark color and is capable of the partial shielding of bioluminescence.
pColD-lux―PcolD is induced by the SOS response; pDps―Pdps is activated in the presence of DNA-oxidizing agents; pSoxS-lux―PSoxS is induced in the presence of superoxide anion radicals; pOxyR-lux―PoxyR is induced in response to the appearance of hydrogen peroxide or organic peroxides; pAlkA-lux―PalkA is induced in response to DNA alkylation. pXen7 contains P. luminescens ZM1 lux genes controlled by its own promoter, which was used as a constitutive.
The bioluminescence of cells was measured using a Synergy HT luminometer (Biotek, Winooski, VT, USA) at room temperature. Lux biosensors based on E. coli were grown to an early logarithmic phase (OD ≈ 0.1) to achieve a background luminescence approximately 100–1000 RLU at the beginning of the measurements. Lux biosensors based on B. subtilis were grown to a logarithmic phase with an optical density OD ≈ 0.6 (and background luminescence of about 10–500 RLU). Biosensor cell cultures were divided into portions of 200 μL in a 96-well plate. […] The kinetics of change in luminescence was measured at room temperature.

Data set [4] deals with human fibroblast cells (MRC-5). Nature of the data set: MTT test with human fibroblast cells. The conditions noted are these: MRC5, 72 h, read-out: EC50 ± SEM, MRC-5. Type of data set: cell-based. How it is done: The studied compounds were added in concentrations of 1, 3, 6, 12, 25, 50, and 100 μM.
Human fibroblast cells (MRC-5) were used in this study. The cells were cultured in the DMEM medium that contained 10% embryonic calf serum in a CO2 incubator at 37 °C. The tested compounds were dissolved in DMSO and added to the cellular culture at the required concentrations. Three wells were used for each concentration. The cells that were incubated without the compounds were used as a negative control, and doxorubicin was used as the positive one. Cells were placed on 96-well microliter plates and cultivated at 37 °C in 5% CO2/95% air for 72 h. The cell viability was assessed through an MTT (3-(4,5-dimethylthiazol-2-yl)-2,5-phenyl-2H-tetrazolium bromide) conversion assay. A total of 1% MTT was added to each well. Three hours later, isopropanol was added and mixed for 15 min. Optical density (OD) of the samples was measured on a ThermoFischer multi-well spectrophotometer at a wavelength of 450 nm. […] The experimental results are given as average values obtained from three independently conducted experiments.

In general, CC50 refers to the concentration at which the toxic effect on the cells reaches its halfway point.

`[Se]=C(Nc1ccccc1)NC12CC3CC(CC(C3)C1)C2` [4a, 1-(Adamantan-1-yl)-3-phenylselenourea]: the “genotoxic activity (in words)” value with E. coli PQ37 (SOS chromotest / lux-biosensors) was “does not exhibit genotoxic properties”. The “I(c) ± SE, 10 µM” value in the data set with E. coli PQ37 (induction factor, compound 10 µM) worked out at 1.03 ± 0.13. Besides, the “I(c) ± SE, 25 µM” value in the data set on E. coli PQ37 (induction factor, compound 25 µM) was found to be 1.09 ± 0.14. Moreover, the “I(c) ± SE, 50 µM” value in the data set with E. coli PQ37 (induction factor, compound 50 µM) is listed as 1 ± 0.15. In addition, in the data set on E. coli PQ37 (induction factor, compound 100 µM), the “I(c) ± SE, 100 µM” value came to 1.08 ± 0.09. Besides, the CC50 at 24 h in data set [1] was 29.4 ± 8.5 µM; in data set [2], 7.5 ± 1.9 µM. Moreover, the EC50 in data set [3] worked out at 7.5 ± 1.9 µM; in data set [4], 3.38 ± 0.49 µM. Moreover, the “luminescence decrease coefficient of the pXen7 biosensor” value in the data set on E. coli MG1655 pXen7 turned out to be 0.29 ± 0.08.

The record behind these values is article PMC9501280, “Anti-Inflammatory Activity of Soluble Epoxide Hydrolase Inhibitors Based on Selenoureas Bearing an Adamantane Moiety” (International Journal of Molecular Sciences, 2022).
